Laboratory results from patent US20100029755A1, “P-Glycoprotein inhibitor comprising octilonium bromide as an effective ingredient” (priority 2002, published 2010).
Like-named read-outs stand apart in the source and are kept apart here.

Columns and labels:
[1] = administered orally; cited from earlier work
[2] = system: p-glycoprotein; conditions: SD, rat, 1 h, pH 6.4
[3] = system: p-glycoprotein; conditions: SD, rat, 1 h, 10 μg/ml, pH 6.4

absorbed amount of the doxorubicin ([2]; 200 μg/ml) | absorbed doxorubicin as % of the total applied amount ([2]; 200 μg/ml) | increase of the amount of absorbed doxorubicin by octylonium bromide ([2]; 200 μg/ml) | absorbed rhodamine 123 as % of the total applied amount [3] | amount of the absorbed rhodamine 123 [3] | increase of the amount of absorbed rhodamine by octylonium bromide [3] | absorbed amount of the doxorubicin ([2]; 50 μg/ml) | absorbed doxorubicin as % of the total applied amount ([2]; 50 μg/ml) | Compound | fraction of octylonium bromide absorbed systemically [1] | fraction of octylonium bromide remaining in the gastrointestinal tract [1]
11 μg/g tissue | 3.3% | 28 folds | 14.5% | 4.3 μg/g tissue | 4.5 folds |  |  | CCCCCCCCOc1ccccc1C(=O)Nc1ccc(C(=O)OCC[N+](C)(CC)CC)cc1 [octylonium bromide] | 5% | 95%
 |  |  |  |  |  | 0.4 μg/g tissue | 0.12% | COc1cccc2c1C(=O)c1c(O)c3c(c(O)c1C2=O)C[C@@](O)(C(=O)CO)C[C@@H]3O[C@H]1C[C@H](N)[C@H](O)[C@H](C)O1 [doxorubicin] |  | 
